The record followed here is ChEMBL document CHEMBL3526157, “Unique metabolic pathway of [(14)C]lenvatinib after oral administration to male cynomolgus monkey” (Drug Metab Dispos, 2012).

For data set [1], the system named is Cynomolgus monkey. Briefly: Drug metabolism in cynomolgus monkey treated with 30 mg/kg, po of [14C]lenvatinib administered on day 1, 2 and 4 by radio-LC/MS analysis. In kind it is ADME, organism-based, Macaca fascicularis. The following applies: in vivo. On the set-up: dose 30 mg/kg, route oral.
Data set [2] concerns Cynomolgus monkey. The data set can be described thus: Drug retention time in cynomolgus monkey treated with 30 mg/kg, po of [14C]lenvatinib administered on day 1, 2 and 4 by radio-LC/MS analysis. It counts as ADME, organism-based, Macaca fascicularis. Details: dose 30 mg/kg, route oral. The conditions noted are these: in vivo.
Data set [3] in a line: Drug metabolism in cynomolgus monkey liver S9 fraction assessed as decrease of parent compound level at 50 uM up to 120 mins by HPLC analysis in presence of GSH and NADPH. In kind it is ADME, subcellular, Macaca fascicularis. The conditions noted are these: s9, 2 h, TDE = time-dependent effect.
The nature of data set [4]: Drug metabolism in cynomolgus monkey liver S9 fraction assessed as decrease of parent compound level at 50 uM up to 120 mins by HPLC analysis in presence of GSH and absence of NADPH. It counts as ADME, tissue-based, Macaca fascicularis. The conditions noted are these: s9, 2 h, TDE = time-dependent effect.
A short description of data set [5]: Drug metabolism in cynomolgus monkey liver S9 fraction assessed as 5-(3-(6-carbamoyl-7-methoxyquinolin-4-ylthio)-1-(carboxymethylamino)-1-oxopropan-2-ylamino)-[…]-5-oxopentanoic acid level at 50 uM up to 120 mins by HPLC analysis in presence of GSH and NADPH. The conditions noted are these: s9, 2 h. It counts as ADME, subcellular, Macaca fascicularis.
A short description of data set [6]: Drug metabolism in Sprague-Dawley rat liver S9 fraction assessed as decrease of parent compound level at 50 uM up to 120 mins by HPLC analysis in presence of GSH and NADPH. The following applies: s9, 2 h, TDE = time-dependent effect. It counts as ADME, subcellular.
Data set [7] in a line: Drug metabolism in potassium phosphate buffer at pH 7.4 assessed as decrease of parent compound at 50 uM in presence of NAC. In kind it is physicochemical. The conditions noted are these: pH 7.4, 50 µM.
Data set [8] can be described thus: Drug metabolism in potassium phosphate buffer at pH 7.4 assessed as decrease of parent compound at 50 uM in presence of cysteine. In kind it is physicochemical. The following applies: pH 7.4, 50 µM.
A short description of data set [9]: Drug metabolism in cynomolgus monkey liver S9 fraction assessed as 5-(3-(6-carbamoyl-7-methoxyquinolin-4-ylthio)-1-(carboxymethylamino)-1-oxopropan-2-ylamino)-[…]-5-oxopentanoic acid level at 50 uM up to 120 mins by HPLC analysis in presence of GSH and absence of NADPH. In kind it is ADME, Macaca fascicularis. The following applies: s9, 2 h.
The nature of data set [10]: Drug metabolism in human liver S9 fraction assessed as decrease of parent compound level at 50 uM up to 120 mins by HPLC analysis in presence of GSH and NADPH. In kind it is ADME, subcellular. The following applies: s9, 2 h, TDE = time-dependent effect.
A short description of data set [11]: Drug metabolism in human liver S9 fraction assessed as decrease of parent compound level at 50 uM up to 120 mins by HPLC analysis in presence of GSH and absence of NADPH. In kind it is ADME, tissue-based. The following applies: s9, 2 h, TDE = time-dependent effect.
A short description of data set [12]: Drug metabolism in human liver S9 fraction assessed as 5-(3-(6-carbamoyl-7-methoxyquinolin-4-ylthio)-1-(carboxymethylamino)-1-oxopropan-2-ylamino)-[…]-5-oxopentanoic acid level at 50 uM up to 120 mins by HPLC analysis in presence of GSH and NADPH. It counts as ADME, subcellular. The conditions noted are these: s9, 2 h.
Data set [13] is described as follows: Drug metabolism in human liver S9 fraction assessed as 5-(3-(6-carbamoyl-7-methoxyquinolin-4-ylthio)-1-(carboxymethylamino)-1-oxopropan-2-ylamino)-[…]-5-oxopentanoic acid level at 50 uM up to 120 mins by HPLC analysis in presence of GSH and absence of NADPH. In kind it is ADME, tissue-based. The conditions noted are these: s9, 2 h.
Data set [14] in a line: Drug metabolism in potassium phosphate buffer at pH 7.4 assessed as decrease of parent compound at 50 uM in presence of GSH. It counts as physicochemical. The following applies: pH 7.4, 50 µM.
Data set [15] is described as follows: Drug metabolism in Sprague-Dawley rat liver S9 fraction assessed as decrease of parent compound level at 50 uM up to 60 mins by HPLC analysis in presence of GSH and absence of NADPH. The following applies: s9, 1 h, TDE = time-dependent effect.
A short description of data set [16]: Drug metabolism in Sprague-Dawley rat liver S9 fraction assessed as 5-(3-(6-carbamoyl-7-methoxyquinolin-4-ylthio)-1-(carboxymethylamino)-1-oxopropan-2-ylamino)-[…]-5-oxopentanoic acid level at 50 uM up to 60 mins by HPLC analysis in presence of GSH and NADPH. The following applies: s9, 1 h.
Data set [17] is described as follows: Drug metabolism in Sprague-Dawley rat liver S9 fraction assessed as 5-(3-(6-carbamoyl-7-methoxyquinolin-4-ylthio)-1-(carboxymethylamino)-1-oxopropan-2-ylamino)-[…]-5-oxopentanoic acid level at 50 uM up to 60 mins by HPLC analysis in presence of GSH and absence of NADPH. The conditions noted are these: s9, 1 h.

For `COc1cc2nccc(N[C@@H](CSSC[C@H](Nc3ccnc4cc(OC)c(C(N)=O)cc34)C(=O)O)C(=O)O)c2cc1C(N)=O`, the Drug metabolism entry with Cynomolgus monkey [1] is given as “metabolite_detected”. The Retention_time in the data set on Cynomolgus monkey [2] was found to be 13.5 min.

For `COc1cc2nccc(N[C@@H](CS)C(=O)O)c2cc1C(N)=O`, the Drug metabolism entry with Cynomolgus monkey [1] was “metabolite_detected”. Moreover, the Retention_time in the data set on Cynomolgus monkey [2] is 14.5 min.

For `COc1cc2nccc(N[C@@H](CSc3ccnc4cc(OC)c(C(N)=O)cc34)C(=O)O)c2cc1C(N)=O`, the Drug metabolism entry with Cynomolgus monkey [1] is given as “metabolite_detected”. This compound also had a Retention_time in the data set on Cynomolgus monkey [2] of 17.1 min.

Take `COc1cc2nccc(Oc3ccc(NC(=O)NC4CC4)c(Cl)c3)c2cc1C(N)=O.CS(=O)(=O)O` [LENVATINIB MESYLATE]: the Drug metabolism entry is “tde” in data set [3]; “tde” in data set [4]; “metabolite_detected” in data set [5]; “tde” in data set [6]; “metabolite_detected” in data set [7]; “metabolite_detected” in data set [8]. The Drug metabolism result in [9] was “metabolite_detected”; in data set [10], “tde”; in [11], “tde”; in data set [12] it was “metabolite_detected”; in data set [13], “metabolite_detected”; in data set [14] it was “metabolite_detected”. In addition, the Drug metabolism entry in data set [15] is “tde”; in data set [16] it was “metabolite_detected”; in data set [17], “metabolite_detected”. The compound further gave a Retention_time in the data set on Cynomolgus monkey [2] of 46.4 min.
